# Test results published in patent US20040258652A1, “Hair treatment compositions and hair after-treatment compositions for protection against damage by chemical treatment and for the repair of already damaged hair comprising as active substances alkylguanidine compounds” (GOLDSCHMIDT AG, priority 2003, published 2004).
# Experiments:
# [1] = Force for the extension of individual damaged hairs by 15% before and after treatment (DiaStron Mtt670); set-up: species or system human; settings: hair rinse A with 2.0% by weight of compound, pH 5, 30 min immersion, permanently waved and bleached Euro hair, measured wet, difference of 15% extension forces after and before treatment, at least 30 measurements
# Description: Euro hair (hair from Europeans), left natural.
# Preliminary Damage to the Hair
# 1×each permanent waving and bleaching using commercially available products.
# Treatment of the damaged hair:
# The damaged hair was treated with the exemplary formulations.
# For each test formulation, 30 damp individual hairs were measured. The experimental procedure was as follows:
# 1. The predamaged hairs were wetted with water and using the fully automatic device Mtt670 from DiaStron the force was measured which was necessary for 15% extension.
# 2. For recovery, the hairs were immersed for at least 2 h in a water bath.
# 3. The hairs were then immersed for 30 min in the test formulation and then each hair was rinsed for about 7 s under running water.
# 4. The hairs were left overnight (=12 h) to dry in air.
# 5. The force which was necessary in order to extend the treated hair by 15% was again measured as described above, after wetting with water.
# 6. The difference between the 15% extension forces before and after treatment with the test formulation was calculated and used as a measure of the improvement in the mechanical resistivity of the damaged hairs by the alkylguanidine compounds.
# [2] = Determination of the protein loss of predamaged hair (extraction with Na lauryl ether sulfate, UV absorption at 295 nm); set-up: species or system human; settings: hair rinse of Tab. 3 with 2.0% active, pH 5.0, 30 min; predamaged hair (permanently waved and bleached); extraction with 8% Na lauryl ether sulfate 3 h at room temperature; at least three measurements
# Excerpt: The more severely damaged the hair, e.g., by permanent waving or bleaching, the higher the concentration of water-soluble protein fragments/peptides in the hair which can be extracted with water or surfactants. Extraction with surfactants simulates the washing of the hair by means of a shampoo. Also during hair washing, damaged hair loses more peptides than healthy hair.
# For illustration, the hair was predamaged. For this, the hair was permanently waved and bleached 1×each
# The predamaged strands of hair (weight: about 4 g) were immersed in the test formulation (time of action: 30 min) and then rinsed off for 1 min under running tap water (T=35° C.).
# They were then left to dry in the air for 12 hours.
# Determination of the Protein Loss:
# About 0.5 g of hair+about 15 ml of Na lauryl ether sulfate (8%) were shaken at room temperature for 3 h. The solution was subsequently decanted and centrifuged. The protein concentration of the solution was then determined photometrically by measurement of the UV absorption at 295 nm. A keratin hydrolysate was used as a standard (M=1000, Promois WK-H, Seiwa Kasei).
Compound,Force 15%after force 15%before ([1]; Table 2A) [mN],Protein loss [2],Force 15%after force 15%before ([1]; Table 2B) [mN]
"CC(=O)O.CCCCCCCCNC(=N)N [HSP A where R^2 = C8, octylguanidinium acetate]",3.51,26.8 mg/g of hair,–
"CC(=O)O.CCCCN(CCCC)C(=N)N [HSP A where R^1 = C4; R^2 = C4; acetate, N,N-dibutylguanidinium acetate]",–,–,2.16
"CC(=O)O.CC(=O)O.N=C(N)NCCCCCCNC(=N)N [hexane-1,6-diguanidinium acetate]",–,–,3.45
"CC(O)C(=O)O.CCCCCCCCNC(=N)N [HSP A where R^1 = H; R^2 = C8; lactate, octylguanidinium lactate]",–,–,3.65
